One data set deals with canine plasma albumin. Description: Plasma protein binding (PPB), canine plasma. It is filed as in vitro ADME. The following applies: ultracentrifugation, 37° C., 4 h. The method, then:
The binding degree of the assay compound to human/mouse/rat/canine/monkey plasma albumin was studied.
• 1) Matrix preparation: on the day of the assay, plasma was thawed in cold water and centrifuged at 3220 rpm for 5 min to remove all clots. The pH of the resulting plasma was measured and adjusted to 7.4±0.1 using 1% phosphoric acid or 1N sodium hydroxide as needed. • 2) Dilution procedure for the assay compound: the assay compound was dissolved in dimethyl sulfoxide (DMSO) to prepare stock solutions with concentrations of 10 mM and 2 mM, respectively. A 40 μM working solution was prepared by diluting 2 μL of stock solution (2 mM) with 98 μL of DMSO. A 400 μM working solution of the control compound was prepared by diluting 10 μL of stock solution with 240 μL of DMSO. The working solution of the compound (5 μL) was mixed well with a blank matrix (995 μL) at a ratio of 1:200 to prepare a loading matrix.
• a) An equal volume of 30 μL of loading matrix (n=2) was transferred to a sample collection plate to prepare a time 0 (TO) sample for residue determination. The sample was immediately matched with the corresponding blank buffer to a final volume of 60 μL, and the volume ratio of plasma to buffer in each well was 1:1. […] The mixture was centrifuged at 4000 rpm for 20 min and 100 μL of supernatant from each sample was analyzed by LC-MS/MS.

Data set [1] is described as follows: In vivo PK study in beagle dogs. The following applies: male beagle dogs. The method, then: Male beagle dogs were used as assay animals. After a single administration, the plasma concentration of the compound was measured and the pharmacokinetic behavior was evaluated.
Five healthy adult male beagle dogs were selected, wherein 2 were in an intravenous injection group, and 3 were in an oral group. The vehicle in the intravenous injection group was 5% DMSO+95% (20% HP-β-CD). The compound to be assayed was mixed with an appropriate amount of vehicle for intravenous injection, and dissolved with stirring to prepare a clear solution of 0.4 mg/mL. The clear solution was filtered by a microporous membrane, and then ready for use. The vehicle in the oral group was 5% DMSO+95% (20% HP-β-CD). The compound to be assayed was mixed with the vehicle, and dissolved with stirring to prepare a solution of 0.3 mg/mL. Cynomolgus monkeys were administered 1 mg/kg intravenously or 3 mg/kg orally, and then whole blood was collected for a certain period. Plasma was prepared. The drug concentration was analyzed by LC-MS/MS method, and the pharmacokinetic parameters were calculated by Phoenix WinNonlin software (Pharsight, USA).

Data set [2] in a line: In vivo PK study in SD rats. The following applies: male SD rats. The method, then:
Male SD rats were used as assay animals. After a single administration, the plasma concentration of the compound was measured and the pharmacokinetic behavior was evaluated.
Six healthy adult male SD rats were selected, wherein 3 rats were in an intravenous injection group and 3 rats were in an oral group. The vehicle in the intravenous injection group was 5% DMSO+95% (20% HP-β-CD). The compound to be assayed was mixed with an appropriate amount of vehicle for intravenous injection, vortexed and sonicated to prepare a clear solution of 0.2 mg/mL. The clear solution was filtered by a microporous membrane, and then ready for use. The vehicle in the oral group was 5% DMSO+95% (20% HP-β-CD). The compound to be assayed was mixed with the vehicle, vortexed and sonicated to prepare a solution of 1 mg/mL. SD rats were administered 1 mg/kg intravenously or 10 mg/kg orally, and then whole blood was collected for a certain period. Plasma was prepared. The drug concentration was analyzed by LC-MS/MS method, and the pharmacokinetic parameters were calculated by Phoenix WinNonlin software (Pharsight, USA).

In the case of `Cc1cccc(CN2C(=O)c3nc(-c4nc(Nc5ccnn5C)ncc4C)sc3C2(C)C)n1` [WX001], the “Plasma protein binding rate (unbound %)” value in the data set with canine plasma albumin stood at 4.1%. For the same compound, the clearance was determined as 19 mL/min/kg in data set [1] (dog, plasma, iv, 1 mg/kg intravenously) and 24.8 mL/min/kg in data set [2] (rat, plasma, iv, 1 mg/kg intravenously). The Vd is 1.94 L/kg in data set [1] (dog, plasma, iv, 1 mg/kg intravenously, read-out: Vdss) and 1.06 L/kg in data set [2] (rat, plasma, iv, 1 mg/kg intravenously, read-out: Vdss). Besides, the bioavailability worked out at 52% in data set [1] (dog, plasma, oral, 1 mg/kg intravenously / 3 mg/kg orally, read-out: F % (oral bioavailability)) and 21% in data set [2] (rat, plasma, oral, 1 mg/kg intravenously / 10 mg/kg orally, read-out: F % (oral bioavailability)). Further, the half-life in data set [1] (dog, plasma, single administration) was 1.09 h; in data set [2] (rat, plasma, single administration), 2.6 h. Further, the peak concentration (Cmax) was 1230 nM in data set [1] (dog, po, 3 mg/kg orally, plasma) and 1010 nM in data set [2] (rat, po, 10 mg/kg orally, plasma). Also, the “Oral DNAUC (AUCPO/Dose)” value came to 1099.27 nM · h/mpk in data set [1] (3 mg/kg orally) and 302.12 nM · h/mpk in data set [2] (10 mg/kg orally).

The values are drawn from patent US20240300975A1, “DIMETHYL-SUBSTITUTED THIAZOLOLACTAM COMPOUND AND USE THEREOF” (D3 Bio (Wuxi) Co., Ltd., priority 2021, published 2024).
